Like-named read-outs stand apart in the source and are kept apart here. Starred links: 1 amine or outer side, 2 acyl side, 3 side chain; linkers in the order of their positions; H or OH if unused. Positions of bridges follow the written chain, without caps; N, C: chain ends. Non-standard residues stand in square brackets, D forms with d. Residues, ends and D or L forms follow the SMILES beside them. *: point of attachment. NMePhe(3-Cl) = CN[C@@H](Cc1cccc(Cl)c1)C(=O)O; NMeF = CN[C@@H](Cc1ccccc1)C(=O)O; NMeGABA = CN(CCCC(=O)[*:2])[*:1]; NMeI = CC[C@H](C)[C@H](NC)C(=O)O; NMeβAla = CN(CCC(=O)[*:2])[*:1]; NMeL = CN[C@@H](CC(C)C)C(=O)O; NMeV = CN[C@H](C(=O)O)C(C)C; NMeA = CN[C@@H](C)C(=O)O; Piperidide = C1CCN(*)CC1; dNMeA = CN[C@H](C)C(=O)O; β3hA = C[C@H](N)CC(=O)O; Sar = CNCC(=O)O; tBu = CC(C)(C)*
How the values were obtained:
[1] = PAMPA (parallel artificial membrane permeability assay); assay type: in vitro ADME; conditions: PAMPA
Outline: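 Artificial membrane was 10% (w/v) egg lecithin plus 0.5% (w/v) cholesterol in dodecane on a PVDF filter. A 10 mM DMSO stock was added at 0.5% (v/v) to donor buffer (50 mM MOPSO, pH 6.5, 5.0% glycocholic acid). After 18 h at 37 °C, LC/MS or LC/UV gave donor and acceptor levels for Pe.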

[2] = Metabolic stability in human hepatic microsome; assay type: in vitro ADME
[3] = human, microsomes, pH 7.4, CL NADPH(+)
[4] = membrane permeation rate (Pe), 50 mM MOPSO buffer pH 6.5 with 5.0% glycocholic acid, 37° C., 18 hours, read-out: iPAMPA Pe
[5] = microsomes, pH 7.4, human hepatic microsome, NADPH(+), read-out: CL NADPH(+)

SMILES | Papp at 18 hours, 50 µM ([1]; pH 6.5) | microsomal CLint at 1 uM [2, 3] | Papp at 18 hours, 50 µM [1, 4] | microsomal CLint at 1 uM [2, 5] | microsomal CLint at 1 uM ([2]; human, human hepatic microsomes, pH 7.4, human hepatic microsome, NADPH(+), read-out: CL NADPH(+))
CC[C@H](C)[C@H]1C(=O)N(C)[C@@H](C)C(=O)N(C)[C@@H](CC(C)C)C(=O)N[C@@H](COC(C)(C)C)C(=O)N(C)[C@@H](CC(C)C)C(=O)N[C@@H](C)CC(=O)N(C)[C@@H](C)C(=O)N(C)[C@@H](Cc2ccccc2)C(=O)N[C@@H](C)C(=O)N(C)[C@@H](CC(C)C)C(=O)N[C@@H]([C@@H](C)O)C(=O)N[C@@H](Cc2ccccc2)C(=O)N1C [DP-759] (cyclo(A[NMeL]TF[NMeI][NMeA][NMeL]S(tBu)[NMeL][β3hA][NMeA][NMeF])) | 270 nm/s | 144 µL/min/mg | – | – | –
CC[C@H](C)[C@H](NC(=O)[C@H](CC(C)C)N(C)C(=O)[C@@H](NC(=O)[C@H](Cc1ccccc1)N(C)C(=O)[C@@H]1CC(=O)N(C)CCC(=O)N(C)[C@@H](Cc2cccc(Cl)c2)C(=O)N[C@@H](CC(C)C)C(=O)N[C@@H]([C@@H](C)O)C(=O)N[C@@H](CC(C)C)C(=O)N[C@@H]([C@@H](C)CC)C(=O)N(C)[C@@H](CC(C)C)C(=O)N(C)[C@@H](CC(C)C)C(=O)N1)[C@@H](C)CC)C(=O)N1CCCCC1 [DP-941] ([NMeβAla][NMePhe(3-Cl)]LTLI[NMeL][NMeL]D[NMeF]I[NMeL]I-Piperidide; lactam N-9) | – | – | 1 nm/s | 49 µL/min/mg | –
CC[C@H](C)[C@H]1C(=O)N(C)[C@@H](C)C(=O)N(C)[C@@H](Cc2ccccc2)C(=O)N[C@@H]([C@@H](C)O)C(=O)N(C)[C@@H](Cc2ccccc2)C(=O)N(C)[C@@H](CC(C)C)C(=O)N2CCC[C@H]2C(=O)N[C@@H](C)CC(=O)N[C@@H](C)C(=O)NCC(=O)N(C)[C@@H](CC(C)C)C(=O)N1C [DP-767] (cyclo(AG[NMeL][NMeI][NMeA][NMeF]T[NMeF][NMeL]P[β3hA])) | 300 nm/s | 34 µL/min/mg | – | – | –
CC(C)C[C@H]1C(=O)N[C@@H](C)C(=O)N(C)[C@@H](C)C(=O)N[C@@H](C)CC(=O)N(C)[C@@H](C)C(=O)N[C@@H]([C@@H](C)O)C(=O)N(C)CC(=O)N(C)[C@@H](Cc2ccccc2)C(=O)N(C)[C@@H](Cc2ccccc2)C(=O)N(C)[C@@H](C)C(=O)N2CCC[C@H]2C(=O)N1C [DP-765] (cyclo(A[NMeA][β3hA][NMeA]T[Sar][NMeF][NMeF][NMeA]P[NMeL])) | 30 nm/s | 13 µL/min/mg | – | – | –
CC[C@H](C)[C@H]1C(=O)NCC(=O)N(C)[C@@H](Cc2ccccc2)C(=O)N[C@@H]([C@@H](C)O)C(=O)N(C)[C@@H](C)C(=O)N[C@@H](CC(C)C)C(=O)N[C@H](C(=O)N2CCCCC2)CC(=O)N(C)CCC(=O)N(C)[C@@H](C)C(=O)N[C@@H](Cc2ccccc2)C(=O)N[C@@H](C(C)C)C(=O)N(C)[C@@H](CC(C)C)C(=O)N1C [DP-59] ([NMeβAla][NMeA]FV[NMeL][NMeI]G[NMeF]T[NMeA]LD-Piperidide; lactam N-12) | 210 nm/s | 65 µL/min/mg | – | – | –
CC[C@H](C)[C@H]1C(=O)N(C)[C@@H](CC(C)C)C(=O)N[C@@H](Cc2ccccc2)C(=O)N[C@@H]([C@@H](C)O)C(=O)N[C@@H](CC(C)C)C(=O)N(C)[C@@H](Cc2ccccc2)C(=O)N(C)[C@@H](C(C)C)C(=O)N[C@H](C(=O)N(C)CC(=O)N(C)[C@@H](C)C(=O)N(C)[C@@H](CC(C)C)C(=O)N[C@@H](C)C(=O)N2CCCCC2)CC(=O)N[C@H](C)C(=O)N[C@@H](C)C(=O)N1C [DP-670] ([dA]A[NMeI][NMeL]FTL[NMeF][NMeV]D[Sar][NMeA][NMeL]A-Piperidide; lactam N-10) | – | – | 120 nm/s | 22 µL/min/mg | –
CC[C@H](C)[C@@H]1NC(=O)[C@H](CC(C)C)N(C)C(=O)[C@H](CC(C)C)N(C)C(=O)[C@@H](C(C)C)NC(=O)C[C@H](C)NC(=O)[C@H](CC(C)C)N(C)C(=O)[C@H](C)N(C)C(=O)[C@H]([C@@H](C)O)NC(=O)[C@H](CC(C)C)N(C)C(=O)[C@H](C)N(C)C1=O [DP-813] (cyclo(I[NMeA][NMeL]T[NMeA][NMeL][β3hA][dV][NMeL][NMeL])) | – | – | 300 nm/s | 195 µL/min/mg | –
CC(C)C[C@H]1C(=O)N(C)[C@@H](Cc2ccccc2)C(=O)NCC(=O)N[C@H](C(=O)N2CCCCC2)CC(=O)N(C)CC(=O)N[C@@H]([C@@H](C)O)C(=O)N(C)[C@@H](C)C(=O)N[C@@H](COC(C)(C)C)C(=O)N(C)[C@@H](Cc2ccccc2)C(=O)N1C [DP-271] ([Sar]T[NMeA]S(tBu)[NMeF][NMeL][NMeF]GD-Piperidide; lactam N-9) | – | – | 100 nm/s | 38 µL/min/mg | –
CC[C@H](C)[C@H]1C(=O)N(C)[C@@H](C)C(=O)N[C@@H](COC(C)(C)C)C(=O)N(C)[C@@H](CC(C)C)C(=O)N(C)[C@@H](CC(C)C)C(=O)N[C@H](C(=O)N2CCCCC2)CC(=O)N(C)[C@H](C)C(=O)N(C)[C@@H](Cc2ccccc2)C(=O)N[C@@H](C)C(=O)N(C)[C@@H](CC(C)C)C(=O)N[C@@H]([C@@H](C)O)C(=O)N[C@@H](Cc2ccccc2)C(=O)N1C [DP-63] ([dNMeA][NMeF]A[NMeL]TF[NMeI][NMeA]S(tBu)[NMeL][NMeL]D-Piperidide; lactam N-12) | – | – | 170 nm/s | – | 58 µL/min/mg
CC[C@H](C)[C@H](NC(=O)[C@H](CC(C)C)NC(=O)[C@H](CC(C)C)N(C)C(=O)[C@@H](NC(=O)[C@@H]1CCCN1C(=O)[C@@H]1CC(=O)N(C)CCC(=O)N[C@@H](CC(C)C)C(=O)N(C)[C@@H](CC(C)C)C(=O)N[C@@H]([C@@H](C)O)C(=O)N(C)[C@@H](C)C(=O)N[C@@H]([C@@H](C)CC)C(=O)N(C)[C@@H](CC(C)C)C(=O)N(C)[C@@H](CC(C)C)C(=O)N1)[C@@H](C)CC)C(=O)N1CCCCC1 [DP-937] ([NMeβAla]L[NMeL]T[NMeA]I[NMeL][NMeL]DPI[NMeL]LI-Piperidide; lactam N-9) | – | – | 4.7 nm/s | 164 µL/min/mg | –
CC(C)C[C@@H]1NC(=O)[C@H](CC(C)C)N(C)C(=O)[C@H](C)N(C)C(=O)[C@H]([C@@H](C)O)NC(=O)[C@H](Cc2ccccc2)N(C)C(=O)[C@@H](C)NC(=O)C[C@@H](C(=O)N2CCCCC2)NC1=O [DP-741] ([dA][NMeF]T[NMeA][NMeL]LD-Piperidide; lactam N-7) | – | – | 100 nm/s | 169 µL/min/mg | –
CC[C@H](C)[C@@H]1NC(=O)[C@H](CC(C)C)NC(=O)[C@H](Cc2ccccc2)NC(=O)CN(C)C(=O)[C@H](CC(C)C)NC(=O)[C@H](Cc2ccccc2)NC(=O)[C@@H](C)NC(=O)C[C@@H](C(=O)N2CCCCC2)NC(=O)[C@H]([C@@H](C)O)NC(=O)[C@H](Cc2ccccc2)NC1=O [DP-430] ([dA]FL[Sar]FLIFTD-Piperidide; lactam N-10) | – | – | 320 nm/s | 96 µL/min/mg | –
CC(C)C[C@H]1C(=O)N[C@@H](COC(C)(C)C)C(=O)N[C@H](C(=O)N2CCCCC2)CC(=O)N[C@H](C)C(=O)N(C)[C@@H](C)C(=O)N(C)[C@@H](Cc2ccccc2)C(=O)N(C)[C@@H](CC(C)C)C(=O)N[C@@H]([C@@H](C)O)C(=O)N(C)[C@@H](C)C(=O)N1C [DP-148] ([dA][NMeA][NMeF][NMeL]T[NMeA][NMeL]S(tBu)D-Piperidide; lactam N-9) | 310 nm/s | 69 µL/min/mg | – | – | –
CC[C@H](C)[C@@H]1NC(=O)[C@H](CC(C)C)N(C)C(=O)[C@H](C(C)C)N(C)C(=O)[C@H](C)NC(=O)[C@H](C)N(C)C(=O)[C@H](Cc2ccccc2)NC(=O)[C@H]([C@@H](C)O)NC(=O)[C@H](CC(C)C)N(C)C(=O)[C@H](CC(C)C)N(C)C(=O)[C@H](C)N(C)C(=O)C[C@H](C)NC1=O [DP-770] (cyclo(A[NMeV][NMeL]I[β3hA][NMeA][NMeL][NMeL]TF[NMeA])) | 330 nm/s | 95 µL/min/mg | – | – | –
CC[C@H](C)[C@@H]1NC(=O)[C@H](CC(C)C)N(C)C(=O)[C@H](C)NC(=O)CCCN(C)C(=O)C[C@@H](C(=O)N2CCCCC2)NC(=O)[C@H]([C@@H](C)O)NC(=O)[C@H](Cc2ccccc2)NC(=O)[C@H](C(C)C)N(C)C(=O)[C@H](CC(C)C)N(C)C(=O)[C@H](Cc2ccccc2)N(C)C1=O [DP-121] ([NMeGABA]A[NMeL]I[NMeF][NMeL][NMeV]FTD-Piperidide; lactam N-10) | 410 nm/s | 46 µL/min/mg | – | – | –
CC[C@H](C)[C@H](NC(=O)[C@H](CC(C)C)NC(=O)[C@@H]1CC(=O)N[C@@H](C)C(=O)N[C@@H](CC(C)C)C(=O)N[C@@H](Cc2ccccc2)C(=O)N[C@@H](CC(C)C)C(=O)N[C@@H]([C@@H](C)O)C(=O)N2CCC[C@H]2C(=O)N(C)CC(=O)N[C@@H](Cc2ccccc2)C(=O)N[C@@H](C(C)C)C(=O)N(C)[C@@H](C)C(=O)N1)C(=O)N1CCCCC1 [DP-41] (ALFLTP[Sar]FV[NMeA]DLI-Piperidide; lactam N-11) | 110 nm/s | 72 µL/min/mg | – | – | –
CC[C@H](C)[C@H]1C(=O)N(C)[C@@H](C)C(=O)N(C)[C@@H](Cc2ccccc2)C(=O)N[C@@H]([C@@H](C)O)C(=O)N(C)[C@@H](Cc2ccccc2)C(=O)N(C)[C@@H](CC(C)C)C(=O)N2CCC[C@H]2C(=O)N[C@H](C(=O)N2CCCCC2)CC(=O)N[C@@H](C)C(=O)NCC(=O)N(C)[C@@H](CC(C)C)C(=O)N1C [DP-16] (AG[NMeL][NMeI][NMeA][NMeF]T[NMeF][NMeL]PD-Piperidide; lactam N-11) | 300 nm/s | – | – | 74 µL/min/mg | –

Source: patent US9409952B2, “Peptide-compound cyclization method” (Chugai Seiyaku Kabushiki Kaisha, priority 2011, dated 2016)
